The results in this text go back to US8080580B2, “Dioxa-bicyclo[3.2.1]octane-2,3,4-triol derivatives” (Pfizer Inc., priority 2008, dated 2011).

The target in one series is T1, human SGLT2 (Homo sapiens, UniProt P31639).
T1 construct: expressed in transfected cells; host or cells: CHO-FlpIn (Invitrogen)
T1 sequence (P31639 1-672): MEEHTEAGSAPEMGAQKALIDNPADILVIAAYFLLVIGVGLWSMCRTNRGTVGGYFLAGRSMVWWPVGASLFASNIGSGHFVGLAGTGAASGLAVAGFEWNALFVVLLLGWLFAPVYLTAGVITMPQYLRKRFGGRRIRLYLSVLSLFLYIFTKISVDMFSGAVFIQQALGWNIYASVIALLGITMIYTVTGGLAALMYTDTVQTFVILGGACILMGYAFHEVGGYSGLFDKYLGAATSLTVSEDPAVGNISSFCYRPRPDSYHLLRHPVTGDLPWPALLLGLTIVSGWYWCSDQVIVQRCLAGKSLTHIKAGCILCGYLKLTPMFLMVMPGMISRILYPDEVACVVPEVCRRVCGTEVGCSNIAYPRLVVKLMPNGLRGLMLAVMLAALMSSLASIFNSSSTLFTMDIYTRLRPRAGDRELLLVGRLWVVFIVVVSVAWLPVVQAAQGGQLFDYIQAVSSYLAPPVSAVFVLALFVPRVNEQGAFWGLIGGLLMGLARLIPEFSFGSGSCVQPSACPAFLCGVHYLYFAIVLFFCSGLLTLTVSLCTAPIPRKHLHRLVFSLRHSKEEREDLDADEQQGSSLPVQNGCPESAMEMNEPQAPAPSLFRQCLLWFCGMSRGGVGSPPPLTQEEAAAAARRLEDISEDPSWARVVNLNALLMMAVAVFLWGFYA
As to the kind of experiment: SGLT2 functional assay: inhibition of AMG uptake in CHO-FlpIn cells stably expressing human SGLT2. Particulars: individual runs (Run No.), read-out: hSGLT2 IC50. The class given is cell-based. An excerpt:
The SGLT2 functional assay was designed to detect the inhibition of methyl-alpha-D glucopyranoside (AMG—a non-metabolizable form of glucose) uptake via the SGLT2 transporter. The SGLT2 transporter recovers glucose from the proximal tubules of the kidney; its inhibition results in sugar wasted in the urine. The positive control compound, Phlorizin, is a known inhibitor of glucose uptake for SGLT2 and was used for comparing the high percent effect of SGLT2 inhibition of the test compounds.
CHO-FlpIn (Invitrogen, Carlsbad, Calif.) cells stably expressing human SGLT2 (pcDNA5/FRT) were plated in Iso-TC 96 well plates (Perkin Elmer, Waltham, Mass.) at a density of 100,000 cells/well in 100 microL of growth media (1:1 F-12/DMEM media (Gibco, Carlsbad, Calif.), 10% FBS (Sigma, St. Louis Mo.), 1× Pen/Strep (Gibco, Carlsbad, Calif.), 600 microg/mL Hygromycin (Invitrogen, Carlsbad, Calif.)). Prior to treating with test compound, confluent cells were serum starved for 2 hours at 37° C. in 1:1 F-12/DMEM media, replacing with fresh F-12/DMEM media after 1 hour. […] Cell plates were then incubated for 3 hours at 37° C. for AMG uptake.

For a further series, the system named is Male Sprague Dawley rats. As to the kind of experiment: In-vivo assay: urinary glucose excretion in rats after oral gavage. The following applies: rat, urine collected for 24 hours. As for the experimental part:
(§1) Examples 1A and 4A were tested in rats to assess inhibition of glucose transport via urinary glucose excretion. Male Sprague Dawley rats (˜300 g) were singly housed in metabolic cages for urine collection. Rats had access to standard laboratory chow and water ad libitum. Rats (n=2 to 5/group) received vehicle or compound by oral gavage. Dosing solutions were 0.03 mg/mL, 0.3 mg/mL, 0.9 mg/mL, 3 mg/mL, 9 mg/mL and 18 mg/mL for the 0.1 mg/kg, 1 mg/kg, 3 mg/kg, 10 mg/kg, 30 mg/kg and 60 mg/kg doses respectively. Dosing volume was 1 mL/300 g of body weight for all doses. […] The vehicle was 20% v/v PEG400 and 24% v/v hydroxypropyl beta cyclodextrin; HPBCD. Following oral administration, urine was collected for 24 hours. Glucose concentration was measured in urine by UV absorbance spectrophotometry at 340 nm using a Roche Hitachi 917 spectrophotometer (Diamond Diagnostics, Holliston, Mass.). The total amount of glucose excreted in the urine was calculated as the product of urine concentration and urine volume using the formula below: urinary glucose excreted (mg)/200 g body weight=urinary glucose concentration (mg/dL)×urine volume (dL)×200/rat body weight (g). […] Blood (0.1 mL) was collected from the PK satellite group animals at 1, 2, 4, 7, 24 hours postdose to obtain plasma and analyzed by LC-MS/MS.

A short description of series [1]: PK satellite group of the in-vivo UGE assay (plasma by LC-MS/MS). Particulars: male, Sprague Dawley, rat plasma, oral gavage; for Tmax: read-out: Mean PK Parameters (n = 2) tmax. As for the experimental part:
as §1, with “Male” for “Examples 1A and 4A were tested in rats to assess inhibition of glucose transport via urinary glucose excretion. Male”, “Rats had access to standard laboratory chow and water ad libitum.” left out

Structures are written as SMILES. pIC50: −log10 of the molar value. “And” between values parts separate entries of the source, which are not always exact repeats. Equal entries are not always repeated. Where two headings read alike, the source gives them in different places.

On to `COc1ccc(Cc2cc([C@]34OC[C@](CO)(O3)[C@@H](O)[C@H](O)[C@H]4O)ccc2C)cc1` [Example 1A, (1S,2S,3S,4R,5S)-1-hydroxymethyl-5-[3-(4-methoxy-benzyl)-4-methyl-phenyl]-6,8-dioxa-bicyclo[3.2.1]octane-2,3,4-triol], for which the pIC50 at human SGLT2 is 8.79 and 8.81 and 8.94 and 9.11 and 9.15 and 9.18. Further, the “Mean UGE (mg/200 g of body weight) ± SEM (n = 5)” value with Male Sprague Dawley rats (10 mg/kg) is 2049 ± 382.2 mg/200 g of body weight. In series [1] (10 mg/kg), the AUC(0-t) was found to be 6630 ng·h/mL, the Cmax is 1260 ng/mL and the time of peak concentration (Tmax) was 1 h.
For `CCOc1ccc(Cc2cc([C@]34OC[C@](CO)(O3)[C@@H](O)[C@H](O)[C@H]4O)ccc2Cl)cc1` [Example 4A, (1S,2S,3S,4R,5S)-5-[4-chloro-3-(4-ethoxy-benzyl)-phenyl]-1-hydroxymethyl-6,8-dioxa-bicyclo[3.2.1]octane-2,3,4-triol], the pIC50 on human SGLT2 was 8.90 and 9.09 and 9.24 and 9.04 and 8.73 and 9.15 and 9.13 and 9.07 and 9.11. The “Mean UGE (mg/200 g of body weight) ± SEM (n = 5)” value in the series on Male Sprague Dawley rats (0.1 mg/kg) is recorded as 389.0 ± 62.54 mg/200 g of body weight; in the series on Male Sprague Dawley rats (1 mg/kg), 1519 ± 52.02 mg/200 g of body weight; with Male Sprague Dawley rats (3 mg/kg), 1937 ± 101.1 mg/200 g of body weight; in the series with Male Sprague Dawley rats (10 mg/kg), 2145 ± 132.3 mg/200 g of body weight; with Male Sprague Dawley rats (30 mg/kg), 2554 ± 141.1 mg/200 g of body weight; in the series on Male Sprague Dawley rats (60 mg/kg) it was 2437 ± 116.7 mg/200 g of body weight. The AUC(0-t) is 188 ng·h/mL in series [1] (0.1 mg/kg); 2000 ng·h/mL in series [1] (1 mg/kg); 7080 ng·h/mL in series [1] (3 mg/kg); 26400 ng·h/mL in series [1] (10 mg/kg); 10700 ng·h/mL in series [1] (30 mg/kg); 233000 ng·h/mL in series [1] (60 mg/kg). The Cmax in series [1] (0.1 mg/kg) was determined as 43.4 ng/mL; in series [1] (1 mg/kg), 372 ng/mL; in series [1] (3 mg/kg), 1320 ng/mL; in series [1] (10 mg/kg) it was 3100 ng/mL; in series [1] (30 mg/kg), 10500 ng/mL; in series [1] (60 mg/kg), 25300 ng/mL. The time of peak concentration (Tmax) in series [1] (1 mg/kg) worked out at 1 h; in series [1] (3 mg/kg), 1 h; in series [1] (10 mg/kg), 2.5 h; in series [1] (30 mg/kg), 1 h; in series [1] (60 mg/kg), 2 h.

Broadly, the pIC50 is the negative decadic logarithm of the IC50, by convention in mol/L. What is called AUC(0-t) is exposure summed from dosing to a finite time, without extrapolation to infinity. High values mean high exposure, low ones low exposure. The Cmax is the maximum level reached in the sampled fluid or tissue. The Tmax is the time from dosing to the highest level.
